The source of these data is article PMC8791611 (Science Advances, 2022).

Positions count from the first letter of the chain named. Names may count otherwise.

For data set [1], the target named is T1, BmrA (Bacillus subtilis, UniProt O06967).
T1 sequence (O06967 1-589): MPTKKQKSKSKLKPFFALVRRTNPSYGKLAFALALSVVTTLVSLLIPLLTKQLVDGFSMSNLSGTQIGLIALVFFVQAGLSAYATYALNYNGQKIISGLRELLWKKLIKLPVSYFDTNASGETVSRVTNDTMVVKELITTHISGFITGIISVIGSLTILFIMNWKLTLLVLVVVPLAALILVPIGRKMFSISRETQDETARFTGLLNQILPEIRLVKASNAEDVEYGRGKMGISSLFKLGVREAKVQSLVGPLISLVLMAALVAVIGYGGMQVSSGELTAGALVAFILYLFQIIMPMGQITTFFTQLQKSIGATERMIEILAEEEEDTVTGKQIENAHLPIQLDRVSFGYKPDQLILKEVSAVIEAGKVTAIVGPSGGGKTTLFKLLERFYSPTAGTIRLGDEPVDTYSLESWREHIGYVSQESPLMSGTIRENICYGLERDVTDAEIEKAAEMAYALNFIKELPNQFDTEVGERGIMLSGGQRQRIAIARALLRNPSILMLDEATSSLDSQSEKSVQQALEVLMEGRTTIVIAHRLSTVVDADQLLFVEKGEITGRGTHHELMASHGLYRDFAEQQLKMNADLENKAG
As to the kind of experiment: intrinsic fluorescence binding, purified WT BmrA in DDM.

For data set [2], the target named is T2, BmrA (Bacillus subtilis, UniProt O06967, E504A).
T2 sequence (O06967 1-589 E504A): T1 sequence (O06967 1-589)
Put plainly: cryo-EM structure. The data set is classed as binding.

Data set [3] deals with the molecule itself. As to the kind of experiment: crystal structure.

For orientation: Kd means the constant that tells how readily two partners part at equilibrium. A high value points to a looser complex. With `CC/N=c1\cc2oc3cc(NCC)c(C)cc3c(-c3ccccc3C(=O)OCC)c-2cc1C` [R6G], the Kd was determined as 4.8 ± 0.9 µM in data set [1] and 3.3 ± 0.7 µM in data set [2].

B1: BmrA E504A mutant (Bacillus subtilis multidrug ABC exporter, homodimeric) (natural protein)
chain: T1 sequence (O06967 1-589) with E504A
Regarding B1, the binding result in data set [3] is recorded as “binds”.
